# Laboratory results from patent US20170226139A1, “CRYSTALLINE SALTS OF (Z)-O-OCTADEC-9-EN-1-YL O,O-DIHYDROGEN PHOSPHOROTHIOATE” (priority 2013, published 2017).
# Read-outs that look alike come from different tables or passages of the source.
# Tests used:
# [1] = Rx100 salt screening (solid formation, XRPD wet/dry, filterability, exposure to RH > 90%); settings: for Filterability / Crystallinity / Polymorphic behavior: Rx100 salt formed with the named base; for Crystallinity / Polymorphic behavior: XRPD; for Solid upon evaporation (Y/N) / All solvents were evaporated to get a gel: stage 3, 1.05 eq, L-lysine 2.00 eq; for Solid upon evaporation (Y/N): 35 mg Rx100 free acid + base (label = base); for All solvents were evaporated to get a gel: label = base, nature/filterability of the solid; for ON PLATE / XRPD, wet: stage 2 round 2, Rx100 free acid + 1 eq base (label = base)
# Procedure: We designed a complex and unconventional screening regime to screen for Rx100 crystalline salts. […] The screening regime is described as follows.
# Rx100.FA in the form of a viscous liquid and eighteen counter ions were used as starting materials. These counter ions are listed and numbered in Table 4. The numbers will be used for grouping the resulting solids. The screening was performed in three stages.
# Stage one (1) included screening 11 counter ions: sodium hydroxide, ammonium hydroxide, ethylenediamine, diethylamine, tromethamine (Tris), hydroxyethyl morpholine, benzathine, dimethylamino ethanol, L-Arginine, L-Lysine, L-Histidine. […] In stage 1, we performed three rounds of experiment.
# In the first round of experiment, four (4) solvent systems, i.e., isopropyl alcohol (IPA), diethyl ether (DEE), IPA:water (a mixture at a volume ratio of 95:5) and tetrahydrofuran (THF), were used. Thus in this first round of screening, 44 individual base-acid reactions were conducted in 44 vials.
# First, Rx100.FA and each of the bases were mixed in a vial. […] In each of the 44 vials, 211.1 μL of the prepared liquid, which was equivalent to about 35 mg of Rx100.FA, was first dispensed. Then, one equivalent (molar) of each of the 11 bases was dispensed in its corresponding vial. For example, the base sodium hydroxide was added to vials 1, 12, 23 and 34. Similarly, L-histidine was added to vials 11, 22, 33 and 44. Observations were recorded upon addition of the bases in to Rx100.FA.
# Second, the solvent in each mixture was depleted. All vials containing the mixtures of Rx100.FA and each of the bases were left under moderate vacuum and nitrogen bleed at room temperature overnight to evaporate the solvent. The vials were then kept under full vacuum for about an hour to make sure the solvents (ethanol and water) are evaporated. Observations on formation of solid upon evaporation were recorded.
# Third, solvents were added in each vial to induce solid formation. In each vial, a stir bar and one of the four selected solvents (each 5 volumes with respect to the Rx100.FA) were added. The vials were then capped. IPA was added to the first set of 11 vials (1-11), DEE added to the second set of 11 vials (12-22), IPA:water added to the third set of 11 vials (23-33), and THF added to the fourth set of 11 vials (34-44). The vials were left at room temperature while stirring for at least 5 hours. Observations were recorded.
# The first set of XRPD analyses were recorded as “wet” samples. The solids were dried under vacuum for 1 hour and at room temperature followed by XRPD as “dry” sample. The dry solid was then exposed to relative humidity of more than 90% overnight followed by XRPD analysis. For XRPD naming, a number and a letter were used. The number refers to the counter ion and the letter refers to the chronological discovered XRPD pattern of that particular salt.
# In the second round of experiment of stage one, another four (4) solvent systems, i.e., methanol (MeOH), tert-Butyl methyl ether (tBME), ethyl acetate and toluene, were used in the same 44 vials as used in the first round experiment. The solvents in all 44 vials from the first round were evaporated to dryness under vacuum and nitrogen bleed. The 4 new solvents were then added into the vials. Methanol was added to the first set of 11 vials (1-11), tBME added to the second set of 11 vials (12-22), Ethyl acetate added to the third set of 11 vials (23-33), and Toluene added to the fourth set of 11 vials (34-44). The same procedure as in the first round of experiment was followed for these new solvents and samples were taken for XRPD analysis.
# In the third round of experiment, effect of base equivalence was assessed. […] After addition of the extra base, the previous solvent was evaporated and new solvents added.
# [2] = test system: Cultured human peripheral lymphocytes cells; type: cell-based; settings: for Aberrant Cells Mean % −g: excluding gaps only; for Aberrant Cells Mean % +g: plus cells with gaps only
# Procedure: Cultured human peripheral lymphocytes cells were incubated in vitro with Rx100.Lysine for 3 hours with and without S9 mix and for 24 hours without S9 mix. For Rx100.Lysine, concentrations ranging from 3.39 to 500 μg/mL were examined in both treatment conditions. Adjusting for purity, the concentration ranges were 3.06 to 452 μg/mL. […] This increase was just above the historical vehicle control range (0 to 2.0%) for 3 hour treatment without metabolic activation. Thus the response observed is a weak positive and of questionable biological significance cytotoxicity was present just below the acceptable limit of 50±5% for this assay.
# Thus, Rx100.Lysine was considered negative for inducing chromosome aberrations, polyploidy and endoreduplication, in cultured human peripheral blood lymphocytes following a 3 hour treatment with and a 24 treatment without metabolic activation.
# [3] = Single subcutaneous dose pharmacokinetics in irradiated and unirradiated mice; type: in vivo, C57BL/6 mice; settings: single SC dose 1 mg/kg
# Source text: We performed a randomized, open-label, single-dose, four-arm, subcutaneously-administered, study of the pharmacokinetics of Rx100.Ammonia and Rx100.Lysine in irradiated and unirradiated C57BL/6 mice to evaluate the effect of salt form and irradiation on extravascular pharmacokinetics. The purpose of this study was to evaluate the pharmacokinetic parameters for two salt forms of Rx100 (Lysine and Ammonia) in healthy and PB irradiated (IR) mice when administered as a single dose. Each animal received a 1 mg/kg dose of Rx100.Lysine or Rx100.Ammonia. The animals receiving Rx100.Lysine or Rx100.Ammonia after irradiation were dosed 26±2 hours after irradiation and sampling times are relative to the time of test article dosing.
# More specifically, randomized, acclimated, C57BL/6 mice were administered Rx100.Lysine or Rx100.Ammonia (10 mM L-histidine in sterile water for injection, or 1% ethanol, 2% propylene glycol in PBS, respectively) as a single dose as indicated in Table 25.
# Blood was collected from 4 male and 4 female mice via cardiac puncture at pre-defined time points relative to test article dosing (0.5, 1, 2, 4, 6, 8, 12, 18, 24, and 48 hours) and collected into micro plasma separator vials (BD Microtainer®) containing lithium heparin. Blood was maintained on ice until centrifugation and subsequent processing. Blood draws were a terminal procedure. Plasma was frozen at −80° C. until submitted for bioanalysis. Sample collection was completed in September 2012. Samples were transferred to Covance in December 2013, and sample analysis was complete in the first quarter of 2014.
# A total of 160 male and 160 female C57BL/6 10-12 week old mice were used in this study. Animals were randomized with weight stratification into treatment groups and given a second ear tag. Animals were acclimated for 16-19 days (See below Table 26). Prior to irradiation or dosing (in non-irradiated groups), animals were weighed a second time which was the basis of the animal dose delivered.
# TLDs were used for dosimetry and confirmation of the delivered dose. TLDs were analyzed by MD Anderson and have a +/−5% accuracy. A total of 19 dosimeters were used with a mean measured dose of 15.33±0.166 Gy.
# Analysis was performed using qualified and validated Phoenix® WinNonlin® Software. The final data provided was imported into Phoenix® WinNonlin®. All data presented in the tables and figures within the results section of this report were generated using the validated Phoenix® WinNonlin® Software.
# [4] = 3-hour treatment without metabolic activation, positive control 1.00 μg/mL
# [5] = 24-hour treatment without metabolic activation, positive control 0.300 μg/mL
# [6] = + IR (irradiated mice), whole group (not split by gender), 1 mg/kg
# [7] = healthy mice, whole group (not split by gender), 1 mg/kg
# [8] = irradiated mice (15.6 Gy, dosed 26 ± 2 h after), F, 1 mg/kg
# [9] = irradiated mice (15.6 Gy, dosed 26 ± 2 h after), M, 1 mg/kg
# [10] = 3-hour treatment with metabolic activation, positive control 25.0 μg/mL
compound,measurement,setting,value
[K+] [Potassium],Filterability,[1],no
same,Crystallinity,[1],yes
same,Polymorphic behavior,[1],Polymorphic on XRPD
NC(CO)(CO)CO [Tromethamine],Filterability,[1],no
same,Crystallinity,[1],no
same,Polymorphic behavior,[1],Oily on XRPD
same,RH > 90% overnight (XRPD pattern or state after exposure),"[1]; stage 1, third round, 2.1 eq of base, listed as 4-16",5-A + Tris
CO[C@@]12[C@H](COC(N)=O)C3=C(C(=O)C(C)=C(N)C3=O)N1C[C@@H]1N[C@@H]12 [Mitomycin C],Endoreduplicate Mean %,[2]; [4],0.0%
same,Polyploidy Mean %,[2]; [4],0.0%
same,Aberrant Cells Mean % −g,[2]; [4],57.0%
same,Aberrant Cells Mean % +g,[2]; [4],59.0%
same,Endoreduplicate Mean %,[2]; [5],0.0%
same,Polyploidy Mean %,[2]; [5],0.0%
same,Aberrant Cells Mean % −g,[2]; [5],58.0%
same,Aberrant Cells Mean % +g,[2]; [5],61.0%
NCCCC[C@@H](N)C(=O)O [D-Lysine],Filterability,[1],no
same,Crystallinity,[1],yes
same,Polymorphic behavior,[1],Polymorphic on XRPD
same,Solid upon evaporation (Y/N),[1],Gel
same,All solvents were evaporated to get a gel,[1]; solvent MeOH:Water [9:1],Greasy.
same,All solvents were evaporated to get a gel,[1]; solvent MeOH,Greasy.
[K+].[OH-] [KOH],ON PLATE,[1]; Ethyl acetate,Greasy
same,ON PLATE,[1]; IPA:water (1:1),Pasty
Piperazine,Filterability,[1],yes
same,Crystallinity,[1],yes
same,Polymorphic behavior,[1],Multiple patterns on XRPD
same,Solid upon evaporation (Y/N),[1],Gel
same,All solvents were evaporated to get a gel,[1]; solvent MeOH:Water [9:1],Greasy.
same,All solvents were evaporated to get a gel,[1]; solvent MeOH,Greasy.
"CCCCCCCC/C=C\CCCCCCCCOP(O)(O)=S [Rx100.Ammonia, (Z)—O-octadec-9-en-1-yl O,O-dihydrogen phosphorothioate]",CL,[3]; IR females,10.5 mL/min/kg
same,AUC,"[3]; IR females, 1 mg/kg",1591 ng·h/mL
same,CL,[3]; IR males,9.68 mL/min/kg
same,AUC,"[3]; IR males, 1 mg/kg",1721 ng·h/mL
same,"half-life, change after irradiation",[3]; IR versus healthy mice,no change
same,CL,[3]; healthy females,14.5 mL/min/kg
same,exposure (AUC),"[3]; healthy females, 1 mg/kg",1152 ng·h/mL
same,CL,[3]; healthy males,11 mL/min/kg
same,AUC,"[3]; healthy males, 1 mg/kg",1521 ng·h/mL
same,Tmax,"[3]; healthy mice, 1 mg/kg",30 to 60 min
same,Tmax,"[3]; irradiated (IR) mice, 26±2 hours after 15.6 Gy, 1 mg/kg",30 to 60 min
same,AUCINF_obs,[3]; [6],1644.99 ng·h/mL
same,CLss_F,[3]; [6],10.132 mL/min/kg
same,Cmax,[3]; [6],466.71 ng/mL
same,HL_Lambda_z,[3]; [6],1.37 h
same,Vz_F,[3]; [6],1.20034 L/kg
same,AUCINF_obs,"[3]; healthy mice, F, 1 mg/kg",1152.19 ng·h/mL
same,CLss_F,"[3]; healthy mice, F, 1 mg/kg",14.466 mL/min/kg
same,Vz_F,"[3]; healthy mice, F, 1 mg/kg",1.72837 L/kg
same,AUCINF_obs,"[3]; healthy mice, M, 1 mg/kg",1521.44 ng·h/mL
same,CLss_F,"[3]; healthy mice, M, 1 mg/kg",10.954 mL/min/kg
same,Vz_F,"[3]; healthy mice, M, 1 mg/kg",1.3407 L/kg
same,AUCINF_obs,[3]; [7],1342.00 ng·h/mL
same,CLss_F,[3]; [7],12.419 mL/min/kg
same,Cmax,[3]; [7],383.75 ng/mL
same,HL_Lambda_z,[3]; [7],1.78 h
same,Vz_F,[3]; [7],1.91818 L/kg
same,AUCINF_obs,[3]; [8],1591.05 ng·h/mL
same,CLss_F,[3]; [8],10.475 mL/min/kg
same,Vz_F,[3]; [8],1.22969 L/kg
same,AUCINF_obs,[3]; [9],1720.87 ng·h/mL
same,CLss_F,[3]; [9],9.685 mL/min/kg
same,Vz_F,[3]; [9],1.27697 L/kg
CCCCCCCC/C=C\CCCCCCCCOP(O)(O)=S.NCCN [Rx100 Ethylenediamine salt],Stability at high humidity,[1],stable at high humidity
same,Filterability,[1],filterable
same,Crystallinity,[1],showed crystallinity
same,Polymorphic behavior,[1],Creamy/oily on XRPD
same,Crystallinity,[1]; listed as Ethyldiamine,yes
same,Filterability,[1]; listed as Ethyldiamine,yes
L-Arginine,Filterability,[1],yes*
same,Crystallinity,[1],yes
same,Polymorphic behavior,[1],Greasy on XRPD
"O=P1(N(CCCl)CCCl)NCCCO1 (stereo not drawn) [cyclophosphamide, reference compound]",Cytotoxicity (% of Control),[2]; [10],12 % of Control
same,Endoreduplicate Mean %,[2]; [10],0.0%
same,Polyploidy Mean %,[2]; [10],0.0%
same,Aberrant Cells Mean % −g,[2]; [10],58.0%
same,Aberrant Cells Mean % +g,[2]; [10],65.0%
Ca(OH)2,"XRPD, wet",[1]; Ethyl acetate,Calcium
same,"XRPD, wet",[1]; IPA:water (1:1),Calcium
CCCCCCCC/C=C\CCCCCCCCOP([O-])(O)=S.[Na+] [Sodium],Filterability,[1],no
same,Crystallinity,[1],yes
same,Polymorphic behavior,[1],Polymorphic on XRPD
